# In ChEMBL document CHEMBL1153979, “Inhibition of carbonic anhydrase isozymes with benzene sulfonamides incorporating thio, sulfinyl and sulfonyl glycoside moieties” (Bioorg Med Chem Lett, 2009):
# pKi: −log10 of the molar value.
# Target: Carbonic anhydrase 9 (Homo sapiens, UniProt Q16790)
row,pKi,SMILES
1,8.03,CC(=O)OC[C@H]1O[C@@H](S(=O)(=O)Cc2cn(-c3ccc(S(N)(=O)=O)cc3)nn2)[C@H](OC(C)=O)[C@@H](OC(C)=O)[C@@H]1OC(C)=O
2,6.59,NS(=O)(=O)c1ccc(-n2cc(CS[C@@H]3O[C@H](CO)[C@@H](O)[C@H](O)[C@H]3O)nn2)cc1
3,8.21,NS(=O)(=O)c1ccc(-n2cc(CS[C@@H]3O[C@H](CO)[C@H](O)[C@H](O)[C@H]3O)nn2)cc1
4,8.09,NS(=O)(=O)c1ccc(-n2cc(CS(=O)(=O)[C@@H]3O[C@H](CO)[C@H](O)[C@H](O)[C@H]3O)nn2)cc1
5,8.02,NS(=O)(=O)c1ccc(-n2cc(CS(=O)(=O)[C@@H]3O[C@H](CO)[C@@H](O)[C@H](O)[C@H]3O)nn2)cc1
6,8.07,CC(=O)OC[C@H]1O[C@@H](SCc2cn(-c3ccc(S(N)(=O)=O)cc3)nn2)[C@H](OC(C)=O)[C@@H](OC(C)=O)[C@H]1OC(C)=O
7,8.07,CC(=O)OC[C@H]1O[C@@H](SCc2cn(-c3ccc(S(N)(=O)=O)cc3)nn2)[C@H](OC(C)=O)[C@@H](OC(C)=O)[C@@H]1OC(C)=O
8,8.12,CC(=O)OC[C@H]1O[C@@H](S(=O)(=O)Cc2cn(-c3ccc(S(N)(=O)=O)cc3)nn2)[C@H](OC(C)=O)[C@@H](OC(C)=O)[C@H]1OC(C)=O

row,SMILES,pKi
1,NS(=O)(=O)c1ccc(-n2cc(C[S+]([O-])[C@@H]3O[C@H](CO)[C@@H](O)[C@H](O)[C@H]3O)nn2)cc1 (stereo not given in full),8.01
2,NS(=O)(=O)c1ccc(-n2cc(C[S+]([O-])[C@@H]3O[C@H](CO)[C@H](O)[C@H](O)[C@H]3O)nn2)cc1 (stereo not given in full),8.10
